Where “and” joins values, the source holds several entries; their conditions need not be identical. Equal values may be shown once. Read-outs that look alike come from different tables or passages of the source. Each block holds one compound with its values, some of them ahead of it.
What was measured:
myocardium [1] = conditions: cited from earlier work; for myocardial extraction under baseline / normal flow: baseline or normal flow; for myocardial extraction at increased flow: five-fold increases in flow rate / high flow rates
myocardium [2] = experiment: C-11-TPMP uptake kinetics in the myocardium (dog PET, LAD occlusion); type: in vivo
Description: We have examined the performance of C-11-triphenyl phosphonium cation (TPMP) for assessing regional myocardial flow in dog using PET (Kraus, 1994).
Methods: Four mCi of C-11-TPMP were introduced i.v., and dynamic images of increasing duration (15 sec to 20 min) were acquired over a total time of 85 min. Images were acquired on the GE 4096+ PET scanner (15 slices, 6.5 mm slice thickness). Images were reconstructed using backprojection, and corrected for attenuation. A detailed description of methods appears in Kraus, 1994.
To investigate the relationship between myocardial blood flow and C-11-TPMP uptake in the heart, the LAD was occluded and the C-11-TPMP accumulation in tissue samples compared to microsphere determined regional myocardial blood flow. A significant correlation (r=0.93, p<0.01) was found at 5 min after LAD occlusion (FIG. 12). The non-infracted/infracted myocardium ratio was 12.1±2.4.

[3] = Biodistribution in mice 60 min after i.v. injection; conditions: 60 min after iv. injection
Description: (§1) Three to five mice were used for the biodistribution study of each tracer. Nonanesthetized animals were injected i.v. with tracer solution (FBnTP or FPTP, TPMP 25 μCi; MIBI 40 μCi; TPP 2 μCi, all in a volume of 0.2 mL saline) then killed by neck dislocation at 60 min after injection. The organs and tissues of interest were removed and counted by a radioactivity counter along with standards (1:1000) (LKB Wallac, 1282 Compugamma CS).

FCA-induced inflammation = experiment: Accumulation in FCA-induced inflammation tissue and healthy muscle; type: in vivo; conditions: rats, 3 days after administration of FCA
Description: 0.1 ml of nitrosomethyl urea (NUM) was introduced i.p in female rats (150 g). When tumor reached an approximate size of 1 to 1.5 cm, FCA was injected (0.15 ml) to the hind limb footpad. Uptake assays were carried out 3 days thereafter. F-18-FBnTP (0.25 mCi) was injected via tail vein. Sixty minutes later tumor, inflamed tissue and healthy muscle tissue of the opposite limb (control) were collected on ice, weighed and counted in a gamma counter together with standards.
The accumulation of the novel F-18-phosphonium cations, F-18-FBnTP and F-18-fluoropropyl triphenyl phosphonium (F-18-FPTP) in comparison with F-18-FDG in FCA-induced inflammation and healthy tissue is presented in Table 2. Induction of inflammation and activity counting were carried out as described above.

[4] = mouse, in vivo, iv, 60 min
Description: as §1

prostate carcinoma = experiment: Tumor selectivity in orthotopic model of prostate carcinoma; type: in vivo; conditions: nude mice, normalized to muscle
Description: Methods: 2×10^6 cells were injected, under anesthesia, into the prostate epithelial tissue of nude mice. When tumor reached an approximate size of 5 mm, uptake assays were performed as described above. Tumor selectivity of F-18-FBnTP and F-18-FDG was compared (3 mice in each group)

SMILES: [201Tl] [Thallium 201]
myocardial extraction under baseline / normal flow (myocardium [1]): about 80%
myocardial extraction at increased flow (myocardium [1]): about 60%

SMILES: [11CH3][P+](c1ccccc1)(c1ccccc1)c1ccccc1 [[11C]TPMP, C-11-triphenylmethyl phosphonium]
extraction fraction in the heart (myocardium [2]; baseline conditions, flow=69 ml/min/100 g): 91%
decrease of the extraction fraction (myocardium [2]; five-fold increase in flow by adenosine): 39%
biodistribution, blood [3]: 0.03 ± 0.00 % ID/g
biodistribution, heart [3]: 13.4 ± 0.95 % ID/g
biodistribution, kidney [3]: 3.79 ± 0.83 % ID/g
biodistribution, liver [3]: 5.68 ± 0.60 % ID/g
biodistribution, lung [3]: 2.20 ± 0.21 % ID/g
biodistribution, muscle [3]: 2.49 ± 0.35 % ID/g
biodistribution, spleen [3]: 1.43 ± 0.18 % ID/g

SMILES: [18F]CCC[P+](c1ccccc1)(c1ccccc1)c1ccccc1 [[18F]FPTP, [^18F]3-fluoropropyltriphenyl-phosphonium ion]
Inf/Control (FCA-induced inflammation): 0.25 ± 0.04
accumulation, Blood (FCA-induced inflammation): *0.037 ± 0.01 % ID/g tissue
accumulation, Control (healthy muscle) (FCA-induced inflammation): 0.29 ± 0.06 % ID/g tissue
accumulation, Inflammation (FCA-induced inflammation): 0.07 ± 0.01 % ID/g tissue
biodistribution, blood [3]: 0.01 ± 0.00 % ID/g
biodistribution, brain [3]: 0.03 ± 0.00 % ID/g
biodistribution, heart [3]: 9.86 ± 0.82 % ID/g
biodistribution, kidney [3]: 5.74 ± 0.54 % ID/g
biodistribution, liver [3]: 4.22 ± 1.79 % ID/g
biodistribution, lung [3]: 2.02 ± 0.34 % ID/g
biodistribution, muscle [3]: 2.06 ± 0.53 % ID/g
biodistribution, spleen [3]: 1.23 ± 0.26 % ID/g

The next lines start with results.

biodistribution, blood [4]: 0.09 ± 0.02 % ID/g
biodistribution, brain [4]: 0.06 0.02 % ID/g
biodistribution, heart [4]: 20.7 ± 1.92 % ID/g
biodistribution, kidney [4]: 4.37 ± 0.66 % ID/g
biodistribution, liver [4]: 6.12 ± 1.08 % ID/g
biodistribution, lung [4]: 2.81 ± 0.41 % ID/g
biodistribution, muscle [4]: 2.22 ± 0.41 % ID/g
biodistribution, spleen [4]: 1.93 ± 0.47 % ID/g
SMILES: c1ccc([P+](c2ccccc2)(c2ccccc2)c2ccccc2)cc1 [[^3H]TPP, tetraphenyl phosphonium]

Inf/Control (FCA-induced inflammation): 2.12 ± 0.73 and 1.20 ± 0.29
uptake ratio of malignant-to-normal prostate tissue (prostate carcinoma): 1.25
SMILES: OC[C@H]1OC(O)[C@H]([18F])[C@@H](O)[C@@H]1O (stereo partly drawn) [[^18F]FDG, reference compound]
accumulation, Control (healthy muscle) (FCA-induced inflammation): 0.68 ± 0.14 % ID/g tissue and 1.05 ± 0.35 % ID/g tissue
accumulation, Inflammation (FCA-induced inflammation): 1.42 ± 0.53 % ID/g tissue and 1.20 ± 0.16 % ID/g tissue

biodistribution, blood [3]: 0.26 ± 0.05 % ID/g
biodistribution, brain [3]: 0.08 ± 0.04 % ID/g
biodistribution, heart [3]: 5.08 ± 0.25 % ID/g
biodistribution, kidney [3]: 12.6 ± 2.57 % ID/g
biodistribution, liver [3]: 5.55 ± 1.08 % ID/g
biodistribution, lung [3]: 0.98 ± 0.19 % ID/g
biodistribution, muscle [3]: 1.56 ± 0.31 % ID/g
biodistribution, spleen [3]: 1.27 ± 0.33 % ID/g
SMILES: [99Tc].[C-]#[N+]CC(C)(C)OC.[C-]#[N+]CC(C)(C)OC.[C-]#[N+]CC(C)(C)OC.[C-]#[N+]CC(C)(C)OC.[C-]#[N+]CC(C)(C)OC.[C-]#[N+]CC(C)(C)OC [[^99mTc]MIBI, Tc-99m-sestamibii, reference compound]
myocardial extraction under baseline / normal flow (myocardium [1]): about 60%
myocardial extraction at increased flow (myocardium [1]): 40%
